The results in this text go back to ChEMBL document CHEMBL1144759, “Neuroprotective limonoids of root bark of Dictamnus dasycarpus” (J Nat Prod, 2008).

Assay [1] can be described thus: Neuroprotective activity against rat cortical cells assessed as glutamate-induced neurotoxicity by MTT assay. It counts as functional, cell-based. In general terms: Tetrazolium assays rely on reduction of a dye to a coloured formazan, in cell work by metabolically active cells.
Assay [2] in a line: Neuroprotective activity against rat cortical cells at 0.1 uM assessed as glutamate-induced neurotoxicity by MTT assay. It counts as functional.
The nature of assay [3]: Neuroprotective activity against rat cortical cells at 1.0 uM assessed as glutamate-induced neurotoxicity by MTT assay. It counts as functional.
Assay [4] can be described thus: Neuroprotective activity against rat cortical cells at 10.0 uM assessed as glutamate-induced neurotoxicity by MTT assay. It counts as functional.

Broadly, the EC50 is the concentration needed to bring the measured effect to its halfway point. The Emax is the maximal effect, on the per cent scale that the assay sets.

Where a name gives a salt, the structure may show the parent alone.

For the molecule `CC1=C2C(=O)O[C@@H](c3ccoc3)[C@]2(C)CC[C@@H]1O`, the EC50 in assay [1] was found to be 98 nM. In addition, in assay [2], the Emax at 0.1 µM came to 51.1%.

On to `CC1=C2C(=O)O[C@@H](c3ccoc3)[C@]2(C)CC[C@H]1O[C@@H]1O[C@H](CO)[C@@H](O)[C@H](O)[C@H]1O`, for which, in assay [1], the EC50 was 705 nM. The Emax at 1 µM in assay [3] was found to be 53%.

On to `CC1=CCC[C@@]2(C)[C@H](c3ccoc3)OC(=O)[C@H]3O[C@]132` [CALODENDROLIDE], for which the EC50 in assay [1] came to 19 nM. Also, the Emax at 0.1 µM in assay [2] is 71.9%.

Regarding `CC1=C2[C@@H](O)C(=O)O[C@@H](c3ccoc3)[C@]2(C)CC[C@@H]1O` [DICTAMDIOL A], the EC50 in assay [1] came to 68 nM. The Emax at 0.1 µM in assay [2] was found to be 68.1%.

With `CC1=C2[C@H](O)C(=O)O[C@@H](c3ccoc3)[C@]2(C)CC[C@H]1O` [DICTAMDIOL B], the Emax at 0.1 µM in assay [2] was found to be 45.6%.

`CC1=C2[C@H](O)C(=O)O[C@@H](c3ccoc3)[C@]2(C)CC[C@@H]1O` [DICTAMDIOL]: the Emax at 0.1 µM in assay [2] was found to be 35.3%.

For the molecule `C[C@H]1C2=C(O)C(=O)O[C@@H](c3ccoc3)[C@]2(C)CC[C@@H]1O[C@@H]1O[C@H](CO)[C@@H](O)[C@H](O)[C@H]1O` [DICTAMNUSINE], the EC50 in assay [1] came to 42 nM. Moreover, in assay [2], the Emax at 0.1 µM is 62.1%.

For the molecule `C[C@]12N[C@H](Cc3ccccc31)c1ccccc12` [DIZOCILPINE MALEATE], the EC50 in assay [1] came to 480 nM. The Emax at 10 µM in assay [4] was found to be 83.8%.

For the molecule `CC1=C2C(=O)O[C@@H](c3ccoc3)[C@]2(C)CCC1` [FRAXINELLONE], the EC50 in assay [1] amounted to 22 nM. Also, the Emax at 0.1 µM in assay [2] worked out at 70.4%.

As to `CC1=C2C(=O)O[C@@H](c3ccoc3)[C@]2(C)CCC1=O` [FRAXINELLONONE], in assay [3], the Emax at 1 µM came to 47.6%.

Take `CC1(C)O[C@H]2CC(=O)OC[C@]23[C@H]2CC[C@@]4(C)[C@H](c5ccoc5)OC(=O)[C@H]5O[C@]54[C@]2(C)C(=O)C[C@@H]13` [LIMONIN]: the EC50 in assay [1] turned out to be 18 nM. Besides, the Emax at 0.1 µM in assay [2] amounted to 75.9%.

Turning to `CC1(C)OC(=O)C=C[C@]2(C)[C@H]3CC[C@@]4(C)[C@H](c5ccoc5)OC(=O)[C@H]5O[C@]54[C@]3(C)C(=O)C[C@@H]12` [OBACUNONE], the EC50 in assay [1] is 39 nM. The Emax at 0.1 µM in assay [2] worked out at 63.9%.

On to `CC1(C)O[C@H]2CC(=O)OC[C@]23[C@H]2CC[C@@]4(C)[C@H](c5ccoc5)OC(=O)[C@H]5O[C@]54[C@]2(C)[C@@H](O)C(=O)[C@@H]13` [RUTAEVIN], for which, in assay [1], the EC50 was 3060 nM. The Emax at 10 µM in assay [4] was 65.4%.
